1 compound from publication PMC8126654, “Novel Pan-Pim Kinase Inhibitors With Imidazopyridazine and Thiazolidinedione Structure Exert Potent Antitumor Activities” (Frontiers in Pharmacology, 2021) can be followed below.

One test has as its target T1, Pim-1 (Homo sapiens, UniProt P11309).
T1 construct: purchased Life Technologies; Thermo Fisher Scientific Inc
As to the kind of experiment: Binding detection based on SPR platform (BIACORE T200). The note with it: 6.5, 13, 25, or 50 µM. As for the experimental part:
The interactions between test compounds and Pim-1 were detected by surface plasmon resonance platform BIACORE T200 (GE Healthcare Life Sciences, Buckinghamshire, England). Pim-1 was diluted to 20 μg/ml in 10 mM acetate buffer (pH 5.0), and then immobilized as a ligand in the N-hydroxysuccinimide/ethyl 3-(3-dimethylaminopropyl) carbodiimide-pre-activated CM5 sensor chip, following blocking by ethanolamine. Test compounds were diluted at 6.5, 13, 25, or 50 µM in a vehicle of 5% DMSO (v/v) in phosphate buffered saline (PBS). The dilutions were injected as analyte flow liquid phase with PBS containing 5% DMSO (v/v) as running buffer at a constant flow rate of 30 μL/min. A 2-min association time was set. The data were collected by Biacore Control Software. Kinetics and affinity parameters were evaluated with the Langmuir model (1:1) using BIA evaluation software.

For another test, the system named is PC-3. As to the kind of experiment: Immunoblot analysis of phosphorylation of Pim kinase substrates, PC-3. The note with it: PC-3, 4 h. The format is cell-based. The method, then:
Cells were plated overnight and then treated with test compounds for 4 hours. Then, the cells were lyzed in solubilization buffer [10 mM Tris-HCl (pH7.4), 0.1% (w/v) NP-40, 0.1% (w/v) sodium deoxycholate, 0.1% (w/v) SDS, 0.15 M NaCl, 1 mM EDTA, 10 µM aprotinin] with phosphatase inhibitor cocktails (Nakarai Tesque, Kyoto, Japan), and subjected to SDS-PAGE using 15% (w/v) gels under reducing conditions. The separated proteins were electrotransferred to Immobilon transfer membranes (Merck Millipore, Darmstadt, Germany). Then, each membrane was reacted with primary antibodies, which were subsequently complexed with appropriate horseradish peroxidase-conjugated secondary antibodies. Signals were detected using the ECL Western Blotting Detection System (GE Healthcare Life Sciences) and protein expression was quantified with a LAS-3000 Luminescent Image Analyzer (GE Healthcare Life Sciences). The protein bands were quantified using ImageQuant TL software (GE Healthcare Life Sciences).

Another test relates to HCT116. The test is described as follows: Apoptosis assay in HCT116 (Hoechst 33342 nuclear morphology, Cell Death ELISA). Format: cell-based. The method, then:
For caspase-3/7 activity assay, the Caspase-Glo 3/7 Assay System (Promega, Madison, WI) was used according to the manufacturer’s protocol. […] The Caspase-Glo 3/7 reagent was then added to each well and incubated for 1 h, and caspase-3/7 activity was measured. […] After treatment, cells were stained in 0.5 μg/ml Hoechst 33342 for 30 min. Subsequently, cell morphology was observed and images were captured from random visual fields using fluorescence microscopy (Biozero BZ-8100, Keyence, Osaka, Japan). […] After treatment, DNA fragmentation was detected using the Cell Death Detection ELISA^PLUS (Roche Applied Science, Mannheim, Germany).

T1 sequence (P11309 whole entry): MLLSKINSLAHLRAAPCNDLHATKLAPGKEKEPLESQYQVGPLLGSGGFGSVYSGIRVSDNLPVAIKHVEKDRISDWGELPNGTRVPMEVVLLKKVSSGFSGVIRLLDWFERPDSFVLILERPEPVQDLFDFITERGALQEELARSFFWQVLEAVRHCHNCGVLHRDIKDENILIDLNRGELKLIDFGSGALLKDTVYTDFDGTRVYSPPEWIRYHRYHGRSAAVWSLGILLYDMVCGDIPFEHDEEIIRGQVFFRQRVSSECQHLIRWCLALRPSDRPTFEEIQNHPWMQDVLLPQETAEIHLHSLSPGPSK

In the case of `CN1CCN(c2ccc(-c3cnc4ccc(/C=C5\SC(=O)NC5=O)nn34)cc2)CC1` [YPC-21440, (Z)-5-([3-{4-(4-methylpiperazin-1-yl)phenyl}imidazo[1,2-b]pyridazin-6-yl]methylene)thiazolidine-2,4-dione], the “Binding to Pim-1 by SPR (Biacore)” value on Pim-1 was “bound Pim-1 in a concentration-dependent manner”. Moreover, the “Phosphorylation levels of Bad, 4EBP, and p21” value with PC-3 is recorded as “decreased”. Further, in the test on HCT116 (HCT116, 1 µM, 48 h), the Chromatin condensation entry was “induced”. For the same compound, in the test with HCT116 (HCT116, ≥ 0.3 µM, 24 h), the DNA fragmentation entry was “induced”.
